What was measured:
[1] = Gel time by Brookfield viscosity (time to 2500 cps), masterbatch of Examples 9-12 and K, Zn salts as co-catalysts; conditions: 0.16 %Sn, co-catalyst 0.07 %Zn where used
Description: (§1) Solids content was maintained between 50-60%.
(§2) Comparison of catalyst activity was determined by monitoring viscosity as a function of cure time. A Brookfield viscometer fitted with a heated cell was connected to a strip chart recorder. A 10 gram aliquot of the formulation with the desired catalyst was placed in the chamber and rapidly heated to the test temperature. A #27 speed spindle was immersed into the solution and the initial viscosity measured. The rate of increase in viscosity was monitored until a viscosity of 2500 cps was achieved. In almost all the examples the formulation gelled at this viscosity. The time required to reach this viscosity was termed "gel time" at the test temperature. This technique provides information on the time required to reach a target viscosity and on the rate of increase in viscosity for a given system and compares the relative reactivity of different catalysts in a specific formulation at the same temperature. Variability in gel time is +/- 0.5-1.0 mins and is limited by the accuracy of weighing of the catalyst. […] Gel time measurements were then correlated with film properties.
In comparative example K and operative examples 9 to 12 a masterbatch of the following mixture was prepared. The components were stirred to ensure complete solubility, usually from 2 to 4 hours. • Desmophen A565 215g • Desmodur BL 3175 A 140g • Methyl isobutyl ketone 146.4g
(§3) For each evaluation, a 10g aliquot of this master batch was removed and the appropriate catalyst added.

[2] = Gel time by Brookfield viscosity (time to 2500 cps), masterbatch of Examples 1-8 and A-J; design: key to Gel Time @250F (120C): minutes to reach target viscosity (gel time); GEL TIME @ 130°C: unit: min; conditions: for GEL TIME @ 130°C: 0.16%Sn, time to reach 2500 cps (gel times in mins)
Description: as §1, §2
The components were stirred to ensure complete solubility, usually from 2 to 4 hours. • Desmophen A565 (215g, 42.9 wt%) • Desmodur BL 3175 A (140g, 27.9 wt%) • methyl amyl ketone (58.5g, 11.7 wt%) • methy isobutyl ketone (58.5g, 11.7 wt%) • propylene glycol methyl ether acetate (29.0g, 5.8 wt%)
as §3

Row | Compound | Gel Time @ 120°C [1] | Gel Time @ 125°C [1] | GEL TIME @ 130°C [2] | Gel Time @250F (120C) ([2]; 0.20 %Sn) | Gel Time @250F (120C) ([2]; 0.16 %Sn) | Gel Time @266F (130C) ([2]; 0.16 %Sn) | Gel Time @266F (130C) ([2]; 0.20 %Sn)
1 | CCCCCCCCCCCC(=O)[O][Sn]([CH2]CCC)([CH2]CCC)[O]C(=O)CCCCCCCCCCC [A, Dibutyl Sn Dilaurate, reference compound] | 45 min | 29 min | 22.2 | 48.7 |  |  | 
2 | CCC[CH2][Sn]([CH2]CCC)([O]C(C)=O)[O]C(C)=O [B, Dibutyl Sn Diacetate, reference compound] |  |  | 21.2 |  | 45 | 21.3 min | 
3 | CCC[CH2][Sn](=[O])[CH2]CCC [C, Dibutyl Sn Oxide, reference compound] |  |  | 23.2 |  |  | 23.2 min | 
4 | CCC[CH2][Sn]([CH2]CCC)([O]C(C)=O)[O][Sn]([CH2]CCC)([CH2]CCC)[O]C(C)=O [D, Dibutyl Diacetoxy Stannox n=0, reference compound] |  |  | 18.6 |  | 38 | 18.6 min | 
5 | Dibutyl Di Octylmaleate Stannox n=6 [Example 3] |  |  | 20.4 |  |  |  | 
6 | Dibutyl Diacetoxy Stannox n=3 [Example 1] |  |  | 17.2 |  | 36.1 | 17.2 min | 
7 | Dibutyl Diacetoxy Stannox n=6 [Example 2] |  |  | 16.4 |  | 32.5 | 16.5 min | 
8 | Dibutyl Diformyloxy Stannox (n=3) [Example 4] |  |  |  | 27.5 |  |  | 15.9 min
9 | Dibutyl Diformyloxy Stannox (n=6) [Example 5] |  |  |  | 25.6 |  |  | 
10 | Dibutyl Diformyloxy Stannox (n=14) [Example 6] | 29 min | 19 min |  | 24.1 |  |  | 14.4 min

Reference: patent EP0810245A1, “Catalyst for low temperature cure of blocked isocyanates” (ELF ATOCHEM NORTH AMERICA, INC., priority 1996, dated 1997)
